The values that follow come from ChEMBL document CHEMBL1201862, “PubChem BioAssay data set” (2004).

Test [1] has as its target Beta-lactamase (Pseudomonas aeruginosa, UniProt Q79MP6).
In test [2] the target is Beta-lactamase (Salmonella choleraesuis (strain SC-B67), UniProt Q5J463).
The target in test [3] is G-protein coupled receptor 55 (Homo sapiens, UniProt Q9Y2T6). The test can be described thus: selective activators of receptor GPR55 – imaging, U2OS cells, beta-arrestin-GFP redistribution, primary screen (AID 1961). In kind it is functional.
Test [4] has as its target T1, Botulinum neurotoxin type A (Clostridium botulinum (strain Hall / ATCC 3502 / NCTC 13319 / Type A), UniProt P0DPI1). Nature of the test: High-throughput multiplex microsphere dose response for inhibitors of toxin protease, specifically Botulinum neurotoxin light chain A protease, compounds from Cherry Pick 02. It counts as functional. To be noted: read-out: EC50_MICROM.

The target of test [5] is T2, Botulinum neurotoxin type F (Clostridium botulinum, UniProt P30996). The test can be described thus: High-throughput multiplex microsphere dose response for inhibitors of toxin protease, specifically Botulinum neurotoxin light chain F protease, compounds from Cherry Pick 02. The note with it: read-out: EC50_MICROM. It counts as functional.
T2 sequence (P30996 1-436 limits assumed): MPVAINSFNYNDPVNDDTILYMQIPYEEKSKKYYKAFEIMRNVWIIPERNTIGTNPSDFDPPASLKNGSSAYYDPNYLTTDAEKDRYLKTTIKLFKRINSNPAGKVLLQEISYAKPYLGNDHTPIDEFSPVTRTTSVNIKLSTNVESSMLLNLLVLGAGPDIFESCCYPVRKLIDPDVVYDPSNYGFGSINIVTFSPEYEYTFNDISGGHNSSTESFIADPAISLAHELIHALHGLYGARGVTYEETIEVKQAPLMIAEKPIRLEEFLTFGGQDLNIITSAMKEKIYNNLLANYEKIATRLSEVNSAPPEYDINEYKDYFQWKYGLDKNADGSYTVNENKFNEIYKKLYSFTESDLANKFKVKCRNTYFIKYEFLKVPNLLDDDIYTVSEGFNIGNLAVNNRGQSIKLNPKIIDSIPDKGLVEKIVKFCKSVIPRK
Test [6] deals with T1, Botulinum neurotoxin type A. Nature of the test: High-throughput multiplex microsphere dose response for inhibitors of toxin protease, specifically Botulinum neurotoxin light chain A protease, compounds from Cherry Pick 01. It counts as functional. To be noted: read-out: EC50_MICROM.
Test [7] has as its target T2, Botulinum neurotoxin type F. Nature of the test: High-throughput multiplex microsphere dose response for inhibitors of toxin protease, specifically Botulinum neurotoxin light chain F protease, compounds from Cherry Pick 01. It counts as functional. The note with it: read-out: EC50_MICROM.
Test [8] has as its target T1, Botulinum neurotoxin type A. Nature of the test: High-throughput multiplex microsphere dose response for inhibitors of toxin protease, specifically Botulinum neurotoxin light chain A protease, compounds from Powder Set 01. To be noted: read-out: EC50_MICROM. It counts as functional, Clostridium botulinum A str. ATCC 3502.
Test [9] has the same target. Nature of the test: Confirmatory FRET assay using full length substrates for Botulinum neurotoxin light chain A protease, with Powder Set01. It counts as functional.
For test [10], the target named is Vascular endothelial growth factor receptor 2 (Homo sapiens, UniProt P35968). It counts as functional.
Vascular endothelial growth factor receptor 2, sequence (P35968 whole entry): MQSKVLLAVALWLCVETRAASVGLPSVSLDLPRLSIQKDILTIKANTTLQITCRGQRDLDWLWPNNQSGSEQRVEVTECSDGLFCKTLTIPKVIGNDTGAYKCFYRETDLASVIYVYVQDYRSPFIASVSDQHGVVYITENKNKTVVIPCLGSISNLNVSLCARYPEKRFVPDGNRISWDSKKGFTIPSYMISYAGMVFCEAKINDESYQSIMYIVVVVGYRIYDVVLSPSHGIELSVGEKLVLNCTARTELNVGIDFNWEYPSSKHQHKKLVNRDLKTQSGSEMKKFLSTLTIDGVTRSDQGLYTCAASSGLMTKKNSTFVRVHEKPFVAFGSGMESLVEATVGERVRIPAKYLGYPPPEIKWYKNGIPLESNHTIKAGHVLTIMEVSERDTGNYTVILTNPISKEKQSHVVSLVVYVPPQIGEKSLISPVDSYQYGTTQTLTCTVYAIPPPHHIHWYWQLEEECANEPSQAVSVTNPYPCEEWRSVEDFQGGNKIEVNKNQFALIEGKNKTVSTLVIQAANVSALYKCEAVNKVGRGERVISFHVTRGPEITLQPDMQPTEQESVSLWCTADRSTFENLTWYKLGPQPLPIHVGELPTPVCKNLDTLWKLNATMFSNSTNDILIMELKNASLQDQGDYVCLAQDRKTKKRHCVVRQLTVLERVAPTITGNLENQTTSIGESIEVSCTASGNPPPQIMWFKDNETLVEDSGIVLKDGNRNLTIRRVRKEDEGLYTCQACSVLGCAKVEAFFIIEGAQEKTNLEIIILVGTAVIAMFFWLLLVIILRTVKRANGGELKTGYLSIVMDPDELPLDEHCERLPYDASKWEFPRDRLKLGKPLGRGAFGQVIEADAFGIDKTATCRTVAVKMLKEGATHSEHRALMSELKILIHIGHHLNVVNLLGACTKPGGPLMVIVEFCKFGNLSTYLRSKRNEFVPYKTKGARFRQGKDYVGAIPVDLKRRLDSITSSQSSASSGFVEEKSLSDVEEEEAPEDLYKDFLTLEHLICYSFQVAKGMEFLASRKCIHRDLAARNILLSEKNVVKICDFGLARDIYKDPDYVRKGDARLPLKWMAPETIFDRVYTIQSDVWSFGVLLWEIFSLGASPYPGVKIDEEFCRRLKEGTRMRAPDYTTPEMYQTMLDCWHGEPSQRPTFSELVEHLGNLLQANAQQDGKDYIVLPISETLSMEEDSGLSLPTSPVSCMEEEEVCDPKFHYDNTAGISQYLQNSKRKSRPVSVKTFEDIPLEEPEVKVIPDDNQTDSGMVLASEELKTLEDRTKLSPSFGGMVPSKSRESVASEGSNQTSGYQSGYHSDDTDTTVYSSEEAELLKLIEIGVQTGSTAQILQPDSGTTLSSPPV
Test [11] addresses Dual specificity tyrosine-phosphorylation-regulated kinase 1B (Homo sapiens, UniProt Q9Y463). Nature of the test: Navigating the Kinome. Panel member name: DYRK1B. It counts as functional.
Test [12] addresses Platelet-derived growth factor receptor alpha (Homo sapiens, UniProt P16234). Nature of the test: Navigating the Kinome. Panel member name: PDGFRA. In kind it is functional.
Test [13] addresses Rho-associated protein kinase 1 (Homo sapiens, UniProt Q13464). It counts as functional.
Test [14] has as its target Cyclin-dependent kinase 8 (Homo sapiens, UniProt P49336). The test can be described thus: Navigating the Kinome. Panel member name: CDK8. In kind it is functional.
Test [15] has as its target Cyclin-dependent kinase 9 (Homo sapiens, UniProt P50750). In kind it is functional.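 Also: value from the CDK9 entry of a kinome-spanning kinase panel.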
Test [16] concerns the target cAMP-dependent protein kinase catalytic subunit alpha (Homo sapiens, UniProt P17612). In kind it is functional.
For test [17], the target named is Dual specificity protein kinase CLK4 (Homo sapiens, UniProt Q9HAZ1). In kind it is functional.
Dual specificity protein kinase CLK4, sequence (Q9HAZ1 whole entry): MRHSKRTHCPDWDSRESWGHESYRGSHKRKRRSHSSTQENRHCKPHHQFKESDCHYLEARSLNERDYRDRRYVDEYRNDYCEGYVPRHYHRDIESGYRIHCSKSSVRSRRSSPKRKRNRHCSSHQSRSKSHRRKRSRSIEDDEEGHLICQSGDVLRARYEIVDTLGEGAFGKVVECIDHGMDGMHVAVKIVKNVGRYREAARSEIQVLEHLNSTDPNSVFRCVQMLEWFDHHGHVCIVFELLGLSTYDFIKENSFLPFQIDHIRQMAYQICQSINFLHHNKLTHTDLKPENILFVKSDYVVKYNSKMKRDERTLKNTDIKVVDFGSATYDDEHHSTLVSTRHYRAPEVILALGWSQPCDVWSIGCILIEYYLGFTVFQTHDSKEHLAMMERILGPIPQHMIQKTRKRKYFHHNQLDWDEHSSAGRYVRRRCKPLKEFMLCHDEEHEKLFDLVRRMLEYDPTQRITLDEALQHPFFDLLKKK
In test [18] the target is Homeodomain-interacting protein kinase 2 (Homo sapiens, UniProt Q9H2X6). It counts as functional.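 Also: measured within a kinome-wide kinase profiling panel, HIPK2 being one panel member.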
Test [19] addresses Interleukin-1 receptor-associated kinase 4 (Homo sapiens, UniProt Q9NWZ3). It counts as functional.
Test [20] concerns the target Glycogen synthase kinase-3 beta (Homo sapiens, UniProt P49841). In kind it is functional.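 Also: value comes from a broad kinome profiling panel, with GSK3B as the panel member.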
Test [21] deals with Mitogen-activated protein kinase kinase kinase kinase 4 (Homo sapiens, UniProt O95819). It counts as functional.
Test [22] in a line: SAR analysis of small molecule activators of Apaf-1 using a LZ-Caspase-9/Caspase-3 Fluorescent Selectivity assay - Set 2. In kind it is functional. The note with it: read-out: EC50_Mean.
The target in test [23] is T3, Apoptotic protease-activating factor 1 (Homo sapiens, UniProt O14727).
T3 sequence (O14727 whole entry): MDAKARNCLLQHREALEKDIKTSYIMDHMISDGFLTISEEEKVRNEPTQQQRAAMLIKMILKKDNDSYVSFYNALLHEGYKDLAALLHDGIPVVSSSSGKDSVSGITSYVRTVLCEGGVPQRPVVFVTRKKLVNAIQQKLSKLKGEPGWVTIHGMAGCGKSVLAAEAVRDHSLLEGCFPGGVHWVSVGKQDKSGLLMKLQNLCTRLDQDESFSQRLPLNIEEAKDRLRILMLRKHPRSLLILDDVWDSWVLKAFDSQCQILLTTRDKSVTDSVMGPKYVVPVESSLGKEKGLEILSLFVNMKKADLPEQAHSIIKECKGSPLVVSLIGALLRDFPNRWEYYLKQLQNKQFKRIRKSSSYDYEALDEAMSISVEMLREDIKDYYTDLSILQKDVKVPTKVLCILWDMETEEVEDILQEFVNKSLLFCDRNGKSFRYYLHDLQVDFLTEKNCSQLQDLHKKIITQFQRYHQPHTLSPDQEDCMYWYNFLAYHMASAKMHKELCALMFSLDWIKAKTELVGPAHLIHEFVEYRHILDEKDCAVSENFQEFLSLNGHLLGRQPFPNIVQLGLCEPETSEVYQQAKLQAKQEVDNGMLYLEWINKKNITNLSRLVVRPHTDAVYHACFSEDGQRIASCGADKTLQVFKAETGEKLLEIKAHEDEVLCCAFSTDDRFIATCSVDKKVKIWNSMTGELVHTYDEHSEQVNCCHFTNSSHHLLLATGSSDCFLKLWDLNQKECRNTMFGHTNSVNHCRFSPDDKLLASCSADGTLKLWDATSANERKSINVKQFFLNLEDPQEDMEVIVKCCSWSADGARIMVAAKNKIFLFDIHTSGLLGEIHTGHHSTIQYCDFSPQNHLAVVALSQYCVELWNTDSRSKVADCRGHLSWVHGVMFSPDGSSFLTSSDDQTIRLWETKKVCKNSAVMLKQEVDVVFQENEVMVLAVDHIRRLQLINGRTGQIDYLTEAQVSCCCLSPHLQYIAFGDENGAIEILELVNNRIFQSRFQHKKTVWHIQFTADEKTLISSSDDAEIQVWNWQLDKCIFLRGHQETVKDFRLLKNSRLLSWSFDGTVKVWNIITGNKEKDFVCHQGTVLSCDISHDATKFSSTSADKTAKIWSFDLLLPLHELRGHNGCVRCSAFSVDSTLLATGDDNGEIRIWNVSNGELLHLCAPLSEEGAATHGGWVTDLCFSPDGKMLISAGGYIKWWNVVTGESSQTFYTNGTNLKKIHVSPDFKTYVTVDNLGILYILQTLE
The test can be described thus: SAR analysis of small molecule Activators of Apaf-1 in a Fluorescent assay - set 2. To be noted: read-out: EC50_Mean. It counts as functional.

The nature of test [24]: THP-1 cell cytotoxicity, cytotoxicity control, set 5 (AID 588443). In kind it is functional.
Test [25] in a line: Vero cell viability loss – purified and synthesized compounds, set 6, cytotoxicity control for M. tuberculosis inhibitor project, dose response (AID 588445). In kind it is functional. To be noted: Mycobacterium tuberculosis.
Test [26] deals with Protein kinase C theta type (Homo sapiens, UniProt Q04759). The test can be described thus: Navigating the Kinome. Panel member name: PRKCQ. In kind it is functional.
Test [27] concerns the target Dual specificity mitogen-activated protein kinase kinase 1 (Homo sapiens, UniProt Q02750). Nature of the test: Navigating the Kinome. Panel member name: MAP2K1. It counts as functional.
For test [28], the target named is Proto-oncogene tyrosine-protein kinase receptor Ret (Homo sapiens, UniProt P07949). In kind it is functional.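 Also: measured within a kinome-wide profiling panel, RET as the panel member.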
Test [29] has as its target Tyrosine-protein kinase receptor TYRO3 (Homo sapiens, UniProt Q06418). In kind it is functional.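 Also: TYRO3 value obtained as one member of a kinome-wide profiling panel.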
Another test has as its target Aurora kinase A (Homo sapiens, UniProt O14965). It counts as functional.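 Also: value from the Navigating the Kinome kinase panel profiling, panel entry STK6.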
For test [30], the target named is Fibroblast growth factor receptor 1 (Homo sapiens, UniProt P11362). It counts as functional.
Test [31] has as its target Casein kinase I isoform alpha (Homo sapiens, UniProt P48729). In kind it is functional.
Test [32] has as its target Hepatocyte growth factor receptor (Homo sapiens, UniProt P08581). In kind it is functional.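 Also: kinase panel profiling across the kinome, with MET as the panel member.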
The target in a further test is Activated CDC42 kinase 1 (Homo sapiens, UniProt Q07912). The test can be described thus: Navigating the Kinome. Panel member name: ACK1. In kind it is functional.
Test [33] deals with Platelet-derived growth factor receptor beta (Homo sapiens, UniProt P09619). It counts as functional.
In test [34] the target is Serine/threonine-protein kinase Chk1 (Homo sapiens, UniProt O14757). It counts as functional.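 Also: measured as one member of a kinome-wide kinase profiling panel.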
The target of test [35] is Tyrosine-protein kinase ABL1 (Homo sapiens, UniProt P00519). In kind it is functional.
In test [36] the target is G protein-coupled receptor kinase 5 (Homo sapiens, UniProt P34947). Nature of the test: Navigating the Kinome. Panel member name: GPRK5. It counts as functional.
Test [37] has as its target Cyclin-dependent kinase 5 (Homo sapiens, UniProt Q00535). It counts as functional.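 Also: CDK5 measured as one member of a kinase profiling panel.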
In a further test the target is Focal adhesion kinase 1 (Homo sapiens, UniProt Q05397). In kind it is functional.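 Also: measured as one member of a kinome panel.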
A further test deals with Aurora kinase B (Homo sapiens, UniProt Q96GD4). In kind it is functional.
Test [38] has as its target Serine/threonine-protein kinase Nek2 (Homo sapiens, UniProt P51955). It counts as functional.
Test [39] deals with Vascular endothelial growth factor receptor 1 (Homo sapiens, UniProt P17948). It counts as functional.
Test [40] concerns the target Macrophage colony-stimulating factor 1 receptor (Homo sapiens, UniProt P07333). In kind it is functional.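 Also: value comes from the Navigating the Kinome screening panel, CSF1R member.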
The target of test [41] is Dual specificity tyrosine-phosphorylation-regulated kinase 1A (Homo sapiens, UniProt Q13627). It counts as functional.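 Also: measured against DYRK1A as one member of a broad kinome profiling panel.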
The target of test [42] is Inhibitor of nuclear factor kappa-B kinase subunit epsilon (Homo sapiens, UniProt Q14164). Nature of the test: Navigating the Kinome. Panel member name: IKBKE. It counts as functional.
The target of test [43] is Calcium/calmodulin-dependent protein kinase type II subunit alpha (Homo sapiens, UniProt Q9UQM7). The test can be described thus: Navigating the Kinome. Panel member name: CAMK2A. It counts as functional.
Test [44] concerns the target Leukocyte tyrosine kinase receptor (Homo sapiens, UniProt P29376). Nature of the test: Navigating the Kinome. Panel member name: LTK. In kind it is functional.

Calls of active or inactive are those of the source.

T1 sequence (P0DPI1 2-448 limits assumed): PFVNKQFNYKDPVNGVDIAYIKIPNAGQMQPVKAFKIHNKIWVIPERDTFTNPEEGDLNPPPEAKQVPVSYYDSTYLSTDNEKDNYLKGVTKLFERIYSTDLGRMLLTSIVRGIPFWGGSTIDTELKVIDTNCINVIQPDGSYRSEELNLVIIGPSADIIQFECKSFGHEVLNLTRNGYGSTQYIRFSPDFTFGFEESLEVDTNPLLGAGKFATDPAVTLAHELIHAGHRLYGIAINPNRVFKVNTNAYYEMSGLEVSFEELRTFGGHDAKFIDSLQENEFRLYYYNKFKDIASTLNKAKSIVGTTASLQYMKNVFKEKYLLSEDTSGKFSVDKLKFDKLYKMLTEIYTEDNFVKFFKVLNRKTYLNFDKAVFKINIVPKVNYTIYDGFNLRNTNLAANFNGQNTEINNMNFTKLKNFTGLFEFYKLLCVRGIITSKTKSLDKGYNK
Platelet-derived growth factor receptor alpha, sequence (P16234 whole entry): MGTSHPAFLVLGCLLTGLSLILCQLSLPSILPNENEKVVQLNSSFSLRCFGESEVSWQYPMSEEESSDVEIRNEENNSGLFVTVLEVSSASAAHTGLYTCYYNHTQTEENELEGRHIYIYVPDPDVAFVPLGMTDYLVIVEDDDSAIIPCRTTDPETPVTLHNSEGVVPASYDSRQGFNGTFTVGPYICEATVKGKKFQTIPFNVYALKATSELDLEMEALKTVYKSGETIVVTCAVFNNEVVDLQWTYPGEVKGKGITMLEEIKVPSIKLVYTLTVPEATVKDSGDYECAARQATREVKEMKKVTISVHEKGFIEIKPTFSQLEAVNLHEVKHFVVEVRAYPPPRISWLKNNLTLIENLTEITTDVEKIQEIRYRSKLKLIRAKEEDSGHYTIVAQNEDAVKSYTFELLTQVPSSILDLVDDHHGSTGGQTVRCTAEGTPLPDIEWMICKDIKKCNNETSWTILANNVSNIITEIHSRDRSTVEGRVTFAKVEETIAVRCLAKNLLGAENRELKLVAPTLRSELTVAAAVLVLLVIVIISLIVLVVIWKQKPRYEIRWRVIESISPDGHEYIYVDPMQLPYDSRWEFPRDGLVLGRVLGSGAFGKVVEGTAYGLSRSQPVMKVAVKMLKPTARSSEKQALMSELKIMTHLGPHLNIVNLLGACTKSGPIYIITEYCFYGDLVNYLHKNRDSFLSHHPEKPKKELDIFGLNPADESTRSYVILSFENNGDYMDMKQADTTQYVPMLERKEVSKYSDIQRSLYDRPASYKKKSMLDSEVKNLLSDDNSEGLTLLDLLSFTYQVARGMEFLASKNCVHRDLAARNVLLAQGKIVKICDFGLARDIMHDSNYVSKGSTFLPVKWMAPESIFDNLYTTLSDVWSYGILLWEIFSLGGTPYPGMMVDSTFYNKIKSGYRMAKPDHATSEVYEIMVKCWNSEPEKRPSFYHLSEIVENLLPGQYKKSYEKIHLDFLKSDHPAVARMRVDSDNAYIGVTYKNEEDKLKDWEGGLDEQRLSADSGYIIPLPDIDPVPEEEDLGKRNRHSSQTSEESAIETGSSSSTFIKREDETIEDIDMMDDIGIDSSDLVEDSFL
Cyclin-dependent kinase 8, sequence (P49336 whole entry): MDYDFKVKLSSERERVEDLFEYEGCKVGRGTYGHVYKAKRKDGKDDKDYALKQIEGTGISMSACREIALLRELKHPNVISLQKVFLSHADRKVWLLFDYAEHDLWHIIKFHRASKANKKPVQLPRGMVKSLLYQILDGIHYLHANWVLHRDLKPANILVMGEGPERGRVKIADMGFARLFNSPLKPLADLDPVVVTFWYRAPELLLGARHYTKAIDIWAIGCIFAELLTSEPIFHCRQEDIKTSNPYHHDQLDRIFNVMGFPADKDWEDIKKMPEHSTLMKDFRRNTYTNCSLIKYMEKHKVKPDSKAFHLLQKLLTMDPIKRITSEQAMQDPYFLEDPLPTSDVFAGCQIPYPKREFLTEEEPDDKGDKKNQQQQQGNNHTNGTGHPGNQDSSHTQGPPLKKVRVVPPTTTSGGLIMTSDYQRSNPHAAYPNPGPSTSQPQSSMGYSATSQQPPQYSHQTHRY
Dual specificity tyrosine-phosphorylation-regulated kinase 1B, sequence (Q9Y463 whole entry): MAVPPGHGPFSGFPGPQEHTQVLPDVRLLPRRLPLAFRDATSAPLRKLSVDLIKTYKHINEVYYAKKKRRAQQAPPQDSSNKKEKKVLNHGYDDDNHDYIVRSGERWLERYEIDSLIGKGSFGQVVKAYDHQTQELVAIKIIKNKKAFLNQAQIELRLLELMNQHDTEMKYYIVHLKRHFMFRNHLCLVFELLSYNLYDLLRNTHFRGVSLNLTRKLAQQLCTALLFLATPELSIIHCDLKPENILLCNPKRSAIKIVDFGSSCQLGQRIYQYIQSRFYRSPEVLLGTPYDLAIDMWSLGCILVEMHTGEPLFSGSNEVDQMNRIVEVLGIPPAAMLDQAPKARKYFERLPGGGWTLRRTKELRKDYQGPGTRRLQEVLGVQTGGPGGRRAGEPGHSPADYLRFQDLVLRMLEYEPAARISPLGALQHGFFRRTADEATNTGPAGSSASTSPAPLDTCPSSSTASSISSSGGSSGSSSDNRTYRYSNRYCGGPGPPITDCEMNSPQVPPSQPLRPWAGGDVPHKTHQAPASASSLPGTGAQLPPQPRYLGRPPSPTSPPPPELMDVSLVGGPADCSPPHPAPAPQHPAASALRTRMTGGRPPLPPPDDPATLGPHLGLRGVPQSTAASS

Take `COc1ccccc1[N+]1=N[C-](c2ccc([N+](=O)[O-])cc2)CC1c1ccccc1` (stereo unspecified): the IC50 on Beta-lactamase [1] and at Beta-lactamase [2] was > 59.6 µM (inactive) throughout. In addition, the EC50 is < 0.5 µM (active) in test [3]; 1 µM (active) in [4]; 0.4 µM (active) in [5]; 1.7 µM (active) in test [6]; 1.8 µM (active) in test [7]; 1.4 µM (active) in test [8]. In addition, in [9], the EC50 was 0.2 µM (active).
On to `c1ccc(C2CCc3[nH]ncc32)cc1` (stereo unspecified), for which the Ki – broadly, the dissociation constant of the complex between target and ligand, obtained from inhibition or displacement – in test [10] is 50.1 µM (active); in test [11] it was 39.8 µM (active); in [12], 79.4 µM (active); in test [13], 20 µM (active); in [14], 39.8 µM (active); in [15], 31.6 µM (active). Besides, the Ki in test [16] is 39.8 µM (active); in [17] it was 12.6 µM (active).
Take `CN(C)c1ccc(-c2c(-c3ccc4[nH]nc(N)c4c3)nnn2Cc2ccccc2)cc1`: the Ki in [18] was > 3.16 µM (inactive); in test [19] it was > 10 µM (inactive); in test [20], 0.0251 µM (active); in test [16] it was 0.631 µM (active); in test [21] it was 0.0794 µM (active).
For `CC(Cn1cccn1)C(=O)O` (stereo unspecified), the EC50 in test [22] and in [23] was > 100 µM (inactive) throughout.
For `CCC(C)NC(=O)CSc1nc2ccccc2c(=O)[nH]1` (stereo unspecified), the CC50 in [24] and in test [25] was > 100 µM (active) throughout.
With `CC(C)c1cc(=O)[nH]c2[nH][nH]c(=O)c12`, the Ki in test [26] was > 100 µM (inactive); in [27], 100 µM (active); in [28], 31.6 µM (active); in test [29], 31.6 µM (active); on Aurora kinase A, 15.8 µM (active); in [30], 63.1 µM (active). Moreover, the Ki in test [31] is 20 µM (active); in test [32] it was 63.1 µM (active); on Activated CDC42 kinase 1, 25.1 µM (active); in test [33] it was > 79.4 µM (inactive); in [34] it was 12.6 µM (active); in test [35] it was 63.1 µM (active). For the same compound, the Ki in test [10] is > 100 µM (inactive); in test [36] it was 20 µM (active); in [37], 15.8 µM (active); in test [11], 15.8 µM (active); on Focal adhesion kinase 1, 79.4 µM (active); in test [12] it was 63.1 µM (active). Moreover, the inhibition constant Ki was 63.1 µM (active) on Aurora kinase B; 63.1 µM (active) in test [38]; 31.6 µM (active) in [14]; 79.4 µM (active) in [39]; > 50.1 µM (inactive) in test [16]; 5.01 µM (active) in test [17]. Besides, the Ki was 100 µM (active) in test [21]; 10 µM (active) in [40]; 15.8 µM (active) in test [41]; 63.1 µM (active) in [42]; 63.1 µM (active) in test [43]; 15.8 µM (active) in [44].
